Test system: Balb/c mice
Experiment: Polypeptide chip-based vaccine immunogenicity scoring system
Assay type: in vivo
Set-up: key to A2: whether the 95 percentile of the last sampling is increased compared with the end point: Y = rise; N = no rise
Conditions: for Total single peptide: A*3 + B*2 + C*1; for A: 95 percentile grouping number score / B: Mouse performance score: total score = 5; for C1: #A timing-sequence response peptide fragment set / C2: #B vaccine specificity peptide fragment set / C3: Intersection of A and B / C4: Percentage of the intersection in set B / C: Timing-sequence response and specificity score: value of the whole mix
Experimental: Data distribution and characteristics thereof are analyzed based on a) and b), a polypeptide chip-based vaccine immunogenicity scoring system (referring to Table 7) is designed.
10 combinations are evaluated by the polypeptide chip-based vaccine immunogenicity scoring system. An evaluation method is consistent with that in Embodiment II. Evaluation results are show in the table below.
This embodiment is consistent with Embodiment II. Each combination is evaluated by the polypeptide chip-based vaccine immunogenicity scoring system. Evaluation results are show in the table below.

[1] = Embodiment III, polypeptide-KLH
[2] = Embodiment III, polypeptide-KLH, Mix1-10

Sequence: GTITVEELKK (SARS-CoV-2) [SEQ ID NO:39]
- B1: D 0-D 14 95 percentile rise in the number of mice [1]: 1
- B2: D 0-D 21 95 percentile rise in the number of mice [1]: 2
- B3: D 14-D 21 95 percentile rise in the number of mice [1]: 2
- B4: D 21-D 28 95 percentile rise in the number of mice [1]: 0
- A1: difference between a highest median and a D 0 median (95 percentile) [2]: 0.03
- A2: whether the 95 percentile of the last sampling is increased compared with the end point [2]: N
- Total single peptide [1]: 5.7
- A: 95 percentile grouping number score [1]: 1
- B: Mouse performance score [1]: 1.1
- C1: #A timing-sequence response peptide fragment set [1]: 145
- C2: #B vaccine specificity peptide fragment set [1]: 529
- C3: Intersection of A and B [1]: 1
- C4: Percentage of the intersection in set B [1]: 0.189
- C: Timing-sequence response and specificity score [1]: 0.5

Sequence: GVYYPDKVFR (SARS-CoV-2) [SEQ ID NO:7]
- A2: whether the 95 percentile of the last sampling is increased compared with the end point (Embodiment II, Combination 2): N
- B1: D 0-D 14 95 percentile rise in the number of mice (Embodiment II, Combination 2): 5
- B2: D 0-D 21 95 percentile rise in the number of mice (Embodiment II, Combination 2): 0
- B3: D 14-D 21 95 percentile rise in the number of mice (Embodiment II, Combination 2): 0
- B4: D 21-D 28 95 percentile rise in the number of mice (Embodiment II, Combination 2): 1
- Total single peptide (Embodiment II, Combination 2): 18.9
- A: 95 percentile grouping number score (Embodiment II, Combination 2): 5
- B: Mouse performance score (Embodiment II, Combination 2): 1.7
- A1: difference between a highest median and a D 0 median (95 percentile) (Embodiment II, mice immunized with Combination 2): 0.4
- B1: D 0-D 14 95 percentile rise in the number of mice [1]: 3
- B2: D 0-D 21 95 percentile rise in the number of mice [1]: 3
- B3: D 14-D 21 95 percentile rise in the number of mice [1]: 0
- B4: D 21-D 28 95 percentile rise in the number of mice [1]: 0
- A1: difference between a highest median and a D 0 median (95 percentile) [2]: 0.09
- A2: whether the 95 percentile of the last sampling is increased compared with the end point [2]: N
- Total single peptide [1]: 14
- A: 95 percentile grouping number score [1]: 3.5
- B: Mouse performance score [1]: 1.5
- C1: #A timing-sequence response peptide fragment set [1]: 145
- C2: #B vaccine specificity peptide fragment set [1]: 529
- C3: Intersection of A and B [1]: 1
- C4: Percentage of the intersection in set B [1]: 0.189
- C: Timing-sequence response and specificity score [1]: 0.5

Sequence: HGKEDLKF (SARS-CoV-2) [SEQ ID NO:23]
- B1: D 0-D 14 95 percentile rise in the number of mice [1]: 3
- B2: D 0-D 21 95 percentile rise in the number of mice [1]: 3
- B3: D 14-D 21 95 percentile rise in the number of mice [1]: 0
- B4: D 21-D 28 95 percentile rise in the number of mice [1]: 1
- A1: difference between a highest median and a D 0 median (95 percentile) [2]: 0.20
- A2: whether the 95 percentile of the last sampling is increased compared with the end point [2]: N
- Total single peptide [1]: 19.4
- A: 95 percentile grouping number score [1]: 5
- B: Mouse performance score [1]: 1.7
- C1: #A timing-sequence response peptide fragment set [1]: 1494
- C2: #B vaccine specificity peptide fragment set [1]: 190
- C3: Intersection of A and B [1]: 2
- C4: Percentage of the intersection in set B [1]: 1.053
- C: Timing-sequence response and specificity score [1]: 1

Sequence: IRGGDGKMKD (SARS-CoV-2) [SEQ ID NO:40]
- B1: D 0-D 14 95 percentile rise in the number of mice [1]: 3
- B2: D 0-D 21 95 percentile rise in the number of mice [1]: 3
- B3: D 14-D 21 95 percentile rise in the number of mice [1]: 2
- B4: D 21-D 28 95 percentile rise in the number of mice [1]: 0
- A1: difference between a highest median and a D 0 median (95 percentile) [2]: 0.11
- A2: whether the 95 percentile of the last sampling is increased compared with the end point [2]: N
- Total single peptide [1]: 18.3
- A: 95 percentile grouping number score [1]: 4.5
- B: Mouse performance score [1]: 1.9
- C1: #A timing-sequence response peptide fragment set [1]: 823
- C2: #B vaccine specificity peptide fragment set [1]: 398
- C3: Intersection of A and B [1]: 7
- C4: Percentage of the intersection in set B [1]: 1.759
- C: Timing-sequence response and specificity score [1]: 1

Sequence: KEIDRLNEV [SEQ ID NO:12]
- B1: D 0-D 14 95 percentile rise in the number of mice [1]: 3
- B2: D 0-D 21 95 percentile rise in the number of mice [1]: 3
- B3: D 14-D 21 95 percentile rise in the number of mice [1]: 1
- B4: D 21-D 28 95 percentile rise in the number of mice [1]: 0
- A1: difference between a highest median and a D 0 median (95 percentile) [2]: 0.10
- A2: whether the 95 percentile of the last sampling is increased compared with the end point [2]: N
- Total single peptide [1]: 15.9
- A: 95 percentile grouping number score [1]: 4
- B: Mouse performance score [1]: 1.7
- C1: #A timing-sequence response peptide fragment set [1]: 257
- C2: #B vaccine specificity peptide fragment set [1]: 682
- C3: Intersection of A and B [1]: 3
- C4: Percentage of the intersection in set B [1]: 0.440
- C: Timing-sequence response and specificity score [1]: 0.5

Sequence: KKPASRELKVTF [SEQ ID NO:24]
- B1: D 0-D 14 95 percentile rise in the number of mice [1]: 3
- B2: D 0-D 21 95 percentile rise in the number of mice [1]: 3
- B3: D 14-D 21 95 percentile rise in the number of mice [1]: 1
- B4: D 21-D 28 95 percentile rise in the number of mice [1]: 2
- A1: difference between a highest median and a D 0 median (95 percentile) [2]: 0.10
- A2: whether the 95 percentile of the last sampling is increased compared with the end point [2]: Y
- Total single peptide [1]: 18.2
- A: 95 percentile grouping number score [1]: 4.5
- B: Mouse performance score [1]: 2.1
- C1: #A timing-sequence response peptide fragment set [1]: 145
- C2: #B vaccine specificity peptide fragment set [1]: 529
- C3: Intersection of A and B [1]: 1
- C4: Percentage of the intersection in set B [1]: 0.189
- C: Timing-sequence response and specificity score [1]: 0.5

Sequence: KLDNYYKKDNSY (SARS-CoV-2) [SEQ ID NO:32]
- B1: D 0-D 14 95 percentile rise in the number of mice [1]: 3
- B2: D 0-D 21 95 percentile rise in the number of mice [1]: 3
- B3: D 14-D 21 95 percentile rise in the number of mice [1]: 1
- B4: D 21-D 28 95 percentile rise in the number of mice [1]: 2
- A1: difference between a highest median and a D 0 median (95 percentile) [2]: 0.12
- A2: whether the 95 percentile of the last sampling is increased compared with the end point [2]: Y
- Total single peptide [1]: 20.2
- A: 95 percentile grouping number score [1]: 5
- B: Mouse performance score [1]: 2.1
- C1: #A timing-sequence response peptide fragment set [1]: 1494
- C2: #B vaccine specificity peptide fragment set [1]: 190
- C3: Intersection of A and B [1]: 2
- C4: Percentage of the intersection in set B [1]: 1.053
- C: Timing-sequence response and specificity score [1]: 1

Sequence: KRISNCVADY [SEQ ID NO:8]
- B1: D 0-D 14 95 percentile rise in the number of mice [1]: 2
- B2: D 0-D 21 95 percentile rise in the number of mice [1]: 3
- B3: D 14-D 21 95 percentile rise in the number of mice [1]: 2
- B4: D 21-D 28 95 percentile rise in the number of mice [1]: 1
- A1: difference between a highest median and a D 0 median (95 percentile) [2]: 0.03
- A2: whether the 95 percentile of the last sampling is increased compared with the end point [2]: N
- Total single peptide [1]: 7.1
- A: 95 percentile grouping number score [1]: 1
- B: Mouse performance score [1]: 1.8
- C1: #A timing-sequence response peptide fragment set [1]: 230
- C2: #B vaccine specificity peptide fragment set [1]: 251
- C3: Intersection of A and B [1]: 1
- C4: Percentage of the intersection in set B [1]: 0.398
- C: Timing-sequence response and specificity score [1]: 0.5

Sequence: KVFRSSVLHSTQ [SEQ ID NO:6]
- B1: D 0-D 14 95 percentile rise in the number of mice [1]: 3
- B2: D 0-D 21 95 percentile rise in the number of mice [1]: 3
- B3: D 14-D 21 95 percentile rise in the number of mice [1]: 0
- B4: D 21-D 28 95 percentile rise in the number of mice [1]: 2
- A1: difference between a highest median and a D 0 median (95 percentile) [2]: 0.09
- A2: whether the 95 percentile of the last sampling is increased compared with the end point [2]: Y
- Total single peptide [1]: 16.3
- A: 95 percentile grouping number score [1]: 4
- B: Mouse performance score [1]: 1.9
- C1: #A timing-sequence response peptide fragment set [1]: 1212
- C2: #B vaccine specificity peptide fragment set [1]: 389
- C3: Intersection of A and B [1]: 1
- C4: Percentage of the intersection in set B [1]: 0.257
- C: Timing-sequence response and specificity score [1]: 0.5

Sequence: LPFNDGVYF (SARS-CoV-2) [SEQ ID NO:14]
- B1: D 0-D 14 95 percentile rise in the number of mice [1]: 3
- B2: D 0-D 21 95 percentile rise in the number of mice [1]: 2
- B3: D 14-D 21 95 percentile rise in the number of mice [1]: 2
- B4: D 21-D 28 95 percentile rise in the number of mice [1]: 3
- A1: difference between a highest median and a D 0 median (95 percentile) [2]: 0.09
- A2: whether the 95 percentile of the last sampling is increased compared with the end point [2]: Y
- Total single peptide [1]: 17.1
- A: 95 percentile grouping number score [1]: 4
- B: Mouse performance score [1]: 2.3
- C1: #A timing-sequence response peptide fragment set [1]: 133
- C2: #B vaccine specificity peptide fragment set [1]: 431
- C3: Intersection of A and B [1]: 1
- C4: Percentage of the intersection in set B [1]: 0.232
- C: Timing-sequence response and specificity score [1]: 0.5

Reference: patent publication US20230136600A1, “Method and device for screening antigen epitope polypeptide” (priority 2020, published 2023)
